Source: ChEMBL document CHEMBL1212738, “Phenotypic and genotypic characterization of Enterobacteriaceae with decreased susceptibility to carbapenems: results from large hospital-based surveillance studies in China” (2010)
≈ marks a conversion by molar mass, not a printed value.

Columns and labels:
[1] = tested on: Klebsiella pneumoniae; experiment: Antimicrobial activity against Klebsiella pneumoniae GZ64T expressing IMP-4 by CLSI method; format: functional
[2] = tested on: Enterobacter cloacae; experiment: Antimicrobial activity against carbapenem-resistant Enterobacter cloacae SZ93 deficient in ompC by CLSI method; format: functional
[3] = tested on: Klebsiella pneumoniae; experiment: Antimicrobial activity against Klebsiella pneumoniae WH77 expressing IMP-4, TEM-1, SHV-14, CTX-M-3, qnrS1 by CLSI method; format: functional
[4] = tested on: Klebsiella pneumoniae; experiment: Antimicrobial activity against carbapenem-resistant Klebsiella pneumoniae FZ47 deficient in IMP-8, TEM-1, SHV-11, CTX-M-14, qnrB2, aac(6')-Ib, ompK35/36 by CLSI method; format: functional
[5] = tested on: Enterobacter cloacae; experiment: Antimicrobial activity against carbapenem-resistant Enterobacter cloacae GX56 deficient in ompC and expressing low levels of ompF DE by CLSI method; format: functional
[6] = tested on: Klebsiella aerogenes; experiment: Antimicrobial activity against Enterobacter aerogenes PU41T expressing CTX-M-14, DHA-1, qnrS1 by CLSI method; format: functional
[7] = tested on: Escherichia coli; experiment: Antimicrobial activity against carbapenem-resistant Escherichia coli PU96 deficient in TEM-1, CTX-M-14, CMY-2, ompC/F by CLSI method; format: functional
[8] = tested on: Klebsiella pneumoniae; experiment: Antimicrobial activity against Klebsiella pneumoniae PU104T expressing TEM-1, CTX-M-15 by CLSI method; format: functional
[9] = tested on: Klebsiella pneumoniae; experiment: Antimicrobial activity against Klebsiella pneumoniae GZ64 expressing IMP-4, ompK35/36 by CLSI method; format: functional
[10] = tested on: Enterobacter cloacae; experiment: Antimicrobial activity against carbapenem-resistant Enterobacter cloacae NJ91 deficient in CTX-M-14, ompC/F by CLSI method; format: functional
[11] = tested on: Escherichia coli; experiment: Antimicrobial activity against Escherichia coli C600 transconjugant SZ62T expressing IMP-4, qnrS1by CLSI method
[12] = tested on: Klebsiella pneumoniae; experiment: Antimicrobial activity against carbapenem-resistant Klebsiella pneumoniae GZ66 deficient in SHV-11, DHA-1, ompK35/36 by CLSI method; format: functional
[13] = tested on: Escherichia coli; experiment: Antimicrobial activity against Escherichia coli C600 by CLSI method; format: functional
[14] = tested on: Escherichia coli; experiment: Antimicrobial activity against carbapenem-resistant Escherichia coli PU60 deficient in TEM-1, CMY-2, ompC/F by CLSI method; format: functional
[15] = tested on: Klebsiella pneumoniae; experiment: Antimicrobial activity against carbapenem-resistant Klebsiella pneumoniae PU5 deficient in SHV-12, DHA-1, aac(6')-Ib-cr, ompK35/36 by CLSI method; format: functional
[16] = tested on: Klebsiella pneumoniae; experiment: Antimicrobial activity against carbapenem-resistant Klebsiella pneumoniae CY1 deficient in SHV-11, DHA-1, ompK35/36 by CLSI method; format: functional
[17] = tested on: Escherichia coli; experiment: Antimicrobial activity against carbapenem-resistant Escherichia coli PU101 deficient in TEM-1, CTX-M-14, CMY-2, ompC by CLSI method; format: functional
[18] = tested on: Escherichia coli; experiment: Antimicrobial activity against Escherichia coli ZJ87T expressing KPC-2 by CLSI method; format: functional
[19] = tested on: Klebsiella pneumoniae; experiment: Antimicrobial activity against carbapenem-resistant Klebsiella pneumoniae PU4 deficient in SHV-1, DHA-1, ompK35/36 by CLSI method; format: functional
[20] = tested on: Klebsiella pneumoniae; experiment: Antimicrobial activity against Klebsiella pneumoniae WH97 expressing SHV-33, aac(6')-Ib, ompK35 DE by CLSI method; format: functional
[21] = tested on: Klebsiella pneumoniae; experiment: Antimicrobial activity against Klebsiella pneumoniae ZJ99T expressing KPC-2, CTX-M-3, qnrS1 by CLSI method; format: functional
[22] = tested on: Klebsiella pneumoniae; experiment: Antimicrobial activity against Klebsiella pneumoniae ZJ70T expressing KPC-2 by CLSI method; format: functional
[23] = tested on: Escherichia coli; experiment: Antimicrobial activity against Escherichia coli C600 transconjugant XJ81T expressing TEM-1, SHV-12, aac(6')-Ib by CLSI method
[24] = tested on: Enterobacter cloacae; experiment: Antimicrobial activity against carbapenem-resistant Enterobacter cloacae NJ89 deficient in CTX-M-14, ompC/F by CLSI method; format: functional
[25] = tested on: Klebsiella pneumoniae; experiment: Antimicrobial activity against carbapenem-resistant Klebsiella pneumoniae ZJ70 deficient in KPC-2, SHV-11, CTX-M-14, ompK35/36 by CLSI method; format: functional
[26] = tested on: Klebsiella pneumoniae; experiment: Antimicrobial activity against Klebsiella pneumoniae ZJ18T expressing KPC-2, DHA-1 by CLSI method; format: functional
[27] = tested on: Klebsiella pneumoniae; experiment: Antimicrobial activity against carbapenem-resistant Klebsiella pneumoniae ZJ69 deficient in SHV-28, ompK35/36 by CLSI method; format: functional
[28] = tested on: Klebsiella pneumoniae; experiment: Antimicrobial activity against carbapenem-resistant Klebsiella pneumoniae PU3 deficient in DHA-1, aac(6')-Ib-cr, ompK35/36 by CLSI method; format: functional
[29] = tested on: Escherichia coli; experiment: Antimicrobial activity against carbapenem-resistant Escherichia coli ZJ86 expressing KPC-2, TEM-1 with ompC loss by CLSI method
[30] = tested on: Klebsiella pneumoniae; experiment: Antimicrobial activity against Klebsiella pneumoniae FZ47T expressing IMP-8, TEM-1, CTX-M-14, qnrB2, aac(6')-Ib by CLSI method; format: functional
[31] = tested on: Citrobacter freundii; experiment: Antimicrobial activity against Citrobacter freundii SZ63 expressing IMP-4, qnrS1by CLSI method; format: functional
[32] = tested on: Klebsiella pneumoniae; experiment: Antimicrobial activity against carbapenem-resistant Klebsiella pneumoniae ZJ68 deficient in CTX-M-15, ompK35/36 by CLSI method
[33] = tested on: Escherichia coli; experiment: Antimicrobial activity against Escherichia coli PU102T expressing TEM-1, CTX-M-14, CMY-2 by CLSI method; format: functional

Structure (SMILES)	MIC [1] [µg/mL]	MIC [2] [µg/mL]	MIC [3] [µg/mL]	MIC [4] [µg/mL]	MIC [5] [µg/mL]	MIC [6] [µg/mL]	MIC [7] [µg/mL]	MIC [8] [µg/mL]	MIC [9] [µg/mL]	MIC [10] [µg/mL]	MIC [11] [µg/mL]	MIC [12] [µg/mL]	MIC [13] [µg/mL]	MIC [14] [µg/mL]	MIC [15] [µg/mL]	MIC [16] [µg/mL]	MIC [17] [µg/mL]	MIC [18] [µg/mL]	MIC [19] [µg/mL]	MIC [20] [µg/mL]	other results
CO/N=C(\C(=O)N[C@@H]1C(=O)N2C(C(=O)O)=C(COC(C)=O)CS[C@H]12)c1csc(N)n1 [CEFOTAXIME]	128 (≈ 281 µM)	1 (≈ 2.2 µM)	256 (≈ 562 µM)	256 (≈ 562 µM)	> 256	128 (≈ 281 µM)	> 256	256 (≈ 562 µM)	256 (≈ 562 µM)	> 256	128 (≈ 281 µM)	128 (≈ 281 µM)	0.13 (≈ 0.285 µM)	256 (≈ 562 µM)	> 256	128 (≈ 281 µM)	> 256	32 (≈ 70.3 µM)	16 (≈ 35.1 µM)	128 (≈ 281 µM)	MIC [21]: 256 µg/mL (≈ 562 µM); MIC [22]: 64 µg/mL (≈ 141 µM); MIC [23]: 4 µg/mL (≈ 8.78 µM); MIC [24]: > 256 µg/mL; MIC [25]: > 256 µg/mL; MIC [26]: 8 µg/mL (≈ 17.6 µM); MIC [27]: 64 µg/mL (≈ 141 µM); MIC [28]: 128 µg/mL (≈ 281 µM); MIC [29]: 64 µg/mL (≈ 141 µM); MIC [30]: 128 µg/mL (≈ 281 µM); MIC [31]: > 256 µg/mL; MIC [32]: > 256 µg/mL; MIC [33]: 256 µg/mL (≈ 562 µM)
CO[C@@]1(NC(=O)Cc2cccs2)C(=O)N2C(C(=O)O)=C(COC(N)=O)CS[C@@H]21 [CEFOXITIN]	256 (≈ 599 µM)	> 256	> 256	> 256	> 256	256 (≈ 599 µM)	> 256	256 (≈ 599 µM)	> 256	> 256	> 256	> 256	16 (≈ 37.4 µM)	> 256	> 256	> 256	> 256	64 (≈ 150 µM)	> 256	> 256	MIC [21]: 32 µg/mL (≈ 74.9 µM); MIC [22]: 32 µg/mL (≈ 74.9 µM); MIC [23]: 16 µg/mL (≈ 37.4 µM); MIC [24]: > 256 µg/mL; MIC [25]: 128 µg/mL (≈ 299 µM); MIC [26]: 128 µg/mL (≈ 299 µM); MIC [27]: > 256 µg/mL; MIC [28]: > 256 µg/mL; MIC [29]: 64 µg/mL (≈ 150 µM); MIC [30]: > 256 µg/mL; MIC [31]: > 256 µg/mL; MIC [32]: 32 µg/mL (≈ 74.9 µM); MIC [33]: > 256 µg/mL
CC(C)(O/N=C(\C(=O)N[C@@H]1C(=O)N2C(C(=O)[O-])=C(C[n+]3ccccc3)CS[C@H]12)c1csc(N)n1)C(=O)O [CEFTAZIDIME]	256 (≈ 468 µM)	0.5 (≈ 0.915 µM)	256 (≈ 468 µM)	> 256	256 (≈ 468 µM)	64 (≈ 117 µM)	> 256	64 (≈ 117 µM)	> 256	> 256	> 256	> 256	0.5 (≈ 0.915 µM)	256 (≈ 468 µM)	256 (≈ 468 µM)	256 (≈ 468 µM)	> 256	32 (≈ 58.5 µM)	64 (≈ 117 µM)	> 256	MIC [21]: 128 µg/mL (≈ 234 µM); MIC [22]: 32 µg/mL (≈ 58.5 µM); MIC [23]: 64 µg/mL (≈ 117 µM); MIC [24]: > 256 µg/mL; MIC [25]: 64 µg/mL (≈ 117 µM); MIC [26]: 16 µg/mL (≈ 29.3 µM); MIC [27]: 128 µg/mL (≈ 234 µM); MIC [28]: 128 µg/mL (≈ 234 µM); MIC [29]: 32 µg/mL (≈ 58.5 µM); MIC [30]: > 256 µg/mL; MIC [31]: > 256 µg/mL; MIC [32]: 256 µg/mL (≈ 468 µM); MIC [33]: 64 µg/mL (≈ 117 µM)
CN(C)c1cc(NC(=O)CNC(C)(C)C)c(O)c2c1C[C@H]1C[C@H]3[C@H](N(C)C)C(O)=C(C(N)=O)C(=O)[C@@]3(O)C(O)=C1C2=O [TIGECYCLINE]	0.06 (≈ 0.102 µM)	1 (≈ 1.71 µM)	0.5 (≈ 0.854 µM)	1 (≈ 1.71 µM)	4 (≈ 6.83 µM)	0.064 (≈ 0.109 µM)	1 (≈ 1.71 µM)	0.25 (≈ 0.427 µM)	0.5 (≈ 0.854 µM)	0.5 (≈ 0.854 µM)	0.13 (≈ 0.222 µM)	0.5 (≈ 0.854 µM)	0.06 (≈ 0.102 µM)	0.125 (≈ 0.213 µM)	0.5 (≈ 0.854 µM)	16 (≈ 27.3 µM)	0.064 (≈ 0.109 µM)	0.25 (≈ 0.427 µM)	4 (≈ 6.83 µM)	0.5 (≈ 0.854 µM)	MIC [21]: 0.25 µg/mL (≈ 0.427 µM); MIC [22]: 0.13 µg/mL (≈ 0.222 µM); MIC [23]: 0.064 µg/mL (≈ 0.109 µM); MIC [24]: 0.5 µg/mL (≈ 0.854 µM); MIC [25]: 0.25 µg/mL (≈ 0.427 µM); MIC [26]: 0.06 µg/mL (≈ 0.102 µM); MIC [27]: 0.5 µg/mL (≈ 0.854 µM); MIC [28]: 0.25 µg/mL (≈ 0.427 µM); MIC [29]: 0.25 µg/mL (≈ 0.427 µM); MIC [30]: 0.06 µg/mL (≈ 0.102 µM); MIC [31]: 1 µg/mL (≈ 1.71 µM); MIC [32]: 0.125 µg/mL (≈ 0.213 µM); MIC [33]: 0.25 µg/mL (≈ 0.427 µM)
